The source made the active and inactive calls. No cut-off for these calls is given here.
How the values were obtained:
[1] = molecular target: T1, Protein cereblon/Histone-lysine N-methyltransferase NSD2 (Homo sapiens) (UniProt O96028+Q96SW2); experiment: PROTAC activity at CRBN/NSD2 in human RPMI 8402 cells assessed as induction of NSD2 degradation at 0.5 to 2 uM measured after 24 hrs by immunoblot analysis; format: cell-based; settings: dose 0.5-2 µM
[2] = molecular target: T1, Protein cereblon/Histone-lysine N-methyltransferase NSD2 (Homo sapiens); experiment: PROTAC activity at CRBN/NSD2 in human SEM cells assessed as induction of NSD2 degradation at 0.5 to 2 uM measured after 24 hrs by immunoblot analysis; format: cell-based; settings: dose 0.5-2 µM
[3] = molecular target: T1, Protein cereblon/Histone-lysine N-methyltransferase NSD2 (Homo sapiens); experiment: PROTAC activity at CRBN/NSD2 in human RPMI 8402 cells assessed as induction of NSD2 degradation at 2 uM measured after 12 to 24 hrs by immunoblot analysis; format: cell-based; settings: time 12-24 hrs
[4] = molecular target: T1, Protein cereblon/Histone-lysine N-methyltransferase NSD2 (Homo sapiens); experiment: PROTAC activity at CRBN/NSD2 in human SEM cells assessed as induction of NSD2 degradation at 2 uM measured after 12 to 24 hrs by immunoblot analysis; format: cell-based; settings: time 12-24 hrs
RPMI 8402 = experiment: Inhibition of colony formation in human RPMI 8402 cells at 2 uM administered every three days for 30 days by iodonitrotetrazolium chloride staining based microscopy analysis; format: functional, cell-based; settings: time 30.0 day
[5] = molecular target: T2, Histone-lysine N-methyltransferase NSD2 (Homo sapiens, UniProt O96028); experiment: Induction of NSD2 degradation in HEK293FT cells measured after 48 hrs; format: cell-based
T2 sequence (O96028 whole entry): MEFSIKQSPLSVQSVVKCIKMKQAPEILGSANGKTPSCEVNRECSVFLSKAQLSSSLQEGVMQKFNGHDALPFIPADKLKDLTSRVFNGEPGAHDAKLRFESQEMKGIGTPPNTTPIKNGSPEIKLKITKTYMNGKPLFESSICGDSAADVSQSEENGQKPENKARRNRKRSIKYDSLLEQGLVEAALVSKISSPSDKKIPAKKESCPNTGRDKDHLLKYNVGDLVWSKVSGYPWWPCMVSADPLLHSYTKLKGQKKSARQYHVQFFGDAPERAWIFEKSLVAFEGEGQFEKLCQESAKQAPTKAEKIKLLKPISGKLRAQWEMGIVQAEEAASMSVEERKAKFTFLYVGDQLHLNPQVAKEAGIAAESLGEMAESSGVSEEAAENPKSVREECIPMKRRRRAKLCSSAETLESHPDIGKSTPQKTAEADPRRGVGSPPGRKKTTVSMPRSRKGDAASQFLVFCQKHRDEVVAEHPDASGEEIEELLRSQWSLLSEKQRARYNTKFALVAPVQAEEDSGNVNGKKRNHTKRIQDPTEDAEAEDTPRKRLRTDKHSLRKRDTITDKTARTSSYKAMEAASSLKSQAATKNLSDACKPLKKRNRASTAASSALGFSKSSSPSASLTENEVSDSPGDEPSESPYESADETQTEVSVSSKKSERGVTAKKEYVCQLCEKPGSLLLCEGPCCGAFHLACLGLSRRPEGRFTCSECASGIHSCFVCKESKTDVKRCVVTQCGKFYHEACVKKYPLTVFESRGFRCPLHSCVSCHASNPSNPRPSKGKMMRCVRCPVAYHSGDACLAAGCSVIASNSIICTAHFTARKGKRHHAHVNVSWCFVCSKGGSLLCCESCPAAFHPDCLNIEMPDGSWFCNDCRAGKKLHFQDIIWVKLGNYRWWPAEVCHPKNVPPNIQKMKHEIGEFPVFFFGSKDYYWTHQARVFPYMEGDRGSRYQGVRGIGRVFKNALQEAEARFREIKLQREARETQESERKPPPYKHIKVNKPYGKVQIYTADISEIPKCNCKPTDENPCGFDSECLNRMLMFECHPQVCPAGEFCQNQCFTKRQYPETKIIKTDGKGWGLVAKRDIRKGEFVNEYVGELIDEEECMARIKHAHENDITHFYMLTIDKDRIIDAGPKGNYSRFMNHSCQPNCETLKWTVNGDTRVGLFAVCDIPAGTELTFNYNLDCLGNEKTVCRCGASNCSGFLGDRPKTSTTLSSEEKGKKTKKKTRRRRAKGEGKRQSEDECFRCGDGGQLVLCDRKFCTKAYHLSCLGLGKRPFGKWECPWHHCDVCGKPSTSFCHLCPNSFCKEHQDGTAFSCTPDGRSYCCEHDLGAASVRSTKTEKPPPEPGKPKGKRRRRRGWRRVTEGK

[6] = molecular target: T1, Protein cereblon/Histone-lysine N-methyltransferase NSD2 (Homo sapiens); experiment: PROTAC activity at CRBN/NSD2 in human SEM cells assessed as induction of NSD2 degradation at 2 uM measured upto 24 hrs by immunoblot analysis; format: cell-based
[7] = molecular target: Protein cereblon/Eukaryotic peptide chain release factor GTP-binding subunit ERF3A (Homo sapiens) (UniProt Q96SW2+P15170); experiment: PROTAC activity at CRBN/GSPT1 in human SEM cells assessed as decrease in GSPT1 level at 2 uM measured upto 24 hrs by immunoblot analysis; format: cell-based
Sequence of Protein cereblon/Eukaryotic peptide chain release factor GTP-binding subunit ERF3A (Homo sapiens) (P15170 whole entry, looked up): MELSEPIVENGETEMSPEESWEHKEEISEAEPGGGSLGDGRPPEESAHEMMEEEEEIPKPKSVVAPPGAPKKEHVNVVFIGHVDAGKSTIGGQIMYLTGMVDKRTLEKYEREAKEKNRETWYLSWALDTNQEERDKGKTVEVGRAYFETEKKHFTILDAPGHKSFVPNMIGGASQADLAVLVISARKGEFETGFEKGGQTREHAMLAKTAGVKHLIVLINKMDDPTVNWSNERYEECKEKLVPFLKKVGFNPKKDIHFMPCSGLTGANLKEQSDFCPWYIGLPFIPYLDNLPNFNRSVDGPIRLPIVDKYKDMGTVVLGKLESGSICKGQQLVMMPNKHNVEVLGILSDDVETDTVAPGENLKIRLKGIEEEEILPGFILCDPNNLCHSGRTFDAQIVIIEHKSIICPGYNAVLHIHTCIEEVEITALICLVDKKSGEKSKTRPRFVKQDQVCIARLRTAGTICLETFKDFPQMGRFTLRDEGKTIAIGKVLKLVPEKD
Sequence of Protein cereblon/Eukaryotic peptide chain release factor GTP-binding subunit ERF3A (Homo sapiens) (Q96SW2 whole entry, looked up): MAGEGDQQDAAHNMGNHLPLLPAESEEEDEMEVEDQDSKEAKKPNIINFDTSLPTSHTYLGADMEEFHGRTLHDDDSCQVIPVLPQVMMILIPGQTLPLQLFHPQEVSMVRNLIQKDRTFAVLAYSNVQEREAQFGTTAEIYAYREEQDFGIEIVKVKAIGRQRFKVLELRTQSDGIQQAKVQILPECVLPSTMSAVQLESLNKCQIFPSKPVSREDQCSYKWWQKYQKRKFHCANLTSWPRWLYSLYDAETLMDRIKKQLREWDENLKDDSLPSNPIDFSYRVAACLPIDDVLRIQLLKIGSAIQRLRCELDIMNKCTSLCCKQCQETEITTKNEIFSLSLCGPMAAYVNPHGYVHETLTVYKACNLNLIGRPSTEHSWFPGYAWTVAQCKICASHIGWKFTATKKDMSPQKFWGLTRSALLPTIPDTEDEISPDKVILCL

T1 sequence (Q96SW2 whole entry, looked up, one chain of several): as the sequence (Q96SW2 whole entry, looked up) above

Activity [1] | Activity [2] | Activity [3] | Activity [4] | DC50 [5] | Activity [6] | Activity [7] | SMILES | inhibition (RPMI 8402)
inactive | inactive | inactive | inactive |  |  |  | CN1C(=O)CCC(N2C(=O)c3ccc(N4CCC(NC(=O)c5ccc(NC(=O)c6ccc(CN(C(=O)c7ccc8c(c7)OCC(=O)N8)C7CC7)cc6)cc5)CC4)cc3C2=O)C1=O (stereo unspecified) | inactive
inactive | inactive | inactive | inactive | 5.2 µM |  |  | O=C(CNc1cccc2c1C(=O)N(C1CCC(=O)NC1=O)C2=O)NCCCOc1ccc(NC(=O)c2ccc(CN(C(=O)c3ccc4c(c3)OCC(=O)N4)C3CC3)cc2)nc1 (stereo unspecified) | 
 |  |  |  |  | inactive | Active | CC(C)N(Cc1ccc(C(=O)Nc2ccc(C(=O)NC3CCN(c4ccc5c(c4)C(=O)N(C4CCC(=O)NC4=O)C5=O)CC3)cc2)cc1)C(=O)c1ccc2c(c1)OCC(=O)N2 (stereo unspecified) | 
inactive | inactive | inactive | inactive |  |  |  | NCCCCCCNC(=O)c1ccc(NC(=O)c2ccc(CN(C(=O)c3ccc4c(c3)OCC(=O)N4)C3CC3)cc2)cc1 | 

— ChEMBL document CHEMBL5506025, “Discovery of LLC0424 as a Potent and Selective in Vivo NSD2 PROTAC Degrader” (J Med Chem, 2024)
